These molecules were tested against influenza A virus minigenome (PB2, PB1, PA, NP proteins) (UniProt P04665). Details: read-out: RNP_ Hubei B IC50.
Assay type: cell-based

influenza A virus minigenome (PB2, PB1, PA, NP proteins), sequence (P04665 whole entry): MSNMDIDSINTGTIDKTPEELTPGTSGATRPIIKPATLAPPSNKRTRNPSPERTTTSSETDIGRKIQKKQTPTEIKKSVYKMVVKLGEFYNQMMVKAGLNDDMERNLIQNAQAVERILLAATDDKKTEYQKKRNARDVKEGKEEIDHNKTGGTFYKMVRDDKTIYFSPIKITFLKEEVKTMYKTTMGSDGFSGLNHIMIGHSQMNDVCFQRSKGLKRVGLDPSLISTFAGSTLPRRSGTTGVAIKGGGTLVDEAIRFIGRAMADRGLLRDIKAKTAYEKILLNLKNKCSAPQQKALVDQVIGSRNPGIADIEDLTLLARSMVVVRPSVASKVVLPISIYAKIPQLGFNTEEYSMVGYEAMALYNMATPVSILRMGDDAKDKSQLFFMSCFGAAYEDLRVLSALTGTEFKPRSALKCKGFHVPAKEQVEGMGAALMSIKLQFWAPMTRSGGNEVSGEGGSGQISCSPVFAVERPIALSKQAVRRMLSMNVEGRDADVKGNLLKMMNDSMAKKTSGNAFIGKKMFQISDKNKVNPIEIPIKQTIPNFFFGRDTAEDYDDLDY

| SMILES | IC50 |
| --- | --- |
| C[C@@]1(CN2CC(F)C2)COC[C@@H](COc2ccc(-c3cc(C(N)=O)c(=O)[nH]c3C(F)(F)F)cc2)O1 [Example 421] | 5 to 10 µM |
| NC(=O)c1cc(-c2ccc(OCC3COCC(Cn4cccc4)O3)cc2)c(C(F)(F)F)[nH]c1=O (single isomer, unassigned) [Example 375, 5-(4-((6-((1H-pyrrol-1-yl)methyl)-1,4-dioxan-2-yl)methoxy)phenyl)-2-oxo-6-(trifluoromethyl)-1,2-dihydropyridine-3-carboxamide] | 5 to 10 µM |
| NC(=O)c1cc(-c2ccc(OCC3COC(C(F)F)CO3)cc2)c(C(F)(F)F)[nH]c1=O (single isomer, unassigned) [Example 344, 5-(4-((5-(difluoromethyl)-1,4-dioxan-2-yl)methoxy)phenyl)-2-oxo-6-(trifluoromethyl)-1,2-dihydropyridine-3-carboxamide] | 5 to 10 µM |
| C[C@]1(CC(F)F)COC[C@@H](COc2ccc(-c3cc(C(N)=O)c(=O)[nH]c3C(F)(F)F)cc2)O1 [Example 434, 5-(4-(((2S,6S)-6-(2,2-difluoroethyl)-6-methyl-1,4-dioxan-2-yl)methoxy)phenyl)-2-oxo-6-(trifluoromethyl)-1,2-dihydropyridine-3-carboxamide] | 5 to 10 µM |
| NC(=O)c1cc(-c2ccc(OCC3CCO3)cc2)c(C(F)(F)F)[nH]c1=O (stereo not drawn) [Example 225, 5-(4-(oxetan-2-ylmethoxy)phenyl)-2-oxo-6-(trifluoromethyl)-1,2-dihydropyridine-3-carboxamide] | 25 to 50 µM |
| NC(=O)c1cc(-c2ccc(OCC3C[C@@H]4CC[C@H]3O4)cc2)c(C(F)(F)F)[nH]c1=O (single isomer, unassigned) [Example 315, 5-(4-((7-oxabicyclo[2.2.1]heptan-2-yl)methoxy)phenyl)-2-oxo-6-(trifluoromethyl)-1,2-dihydropyridine-3-carboxamide] | 10 to 25 µM |
| Cn1nc(C2CC2)cc1COc1ccc(-c2cc(C(N)=O)c(=O)[nH]c2C(F)(F)F)cc1 [Example 263, 5-(4-((3-cyclopropyl-1-methyl-1H-pyrazol-5-yl)methoxy)phenyl)-2-oxo-6-(trifluoromethyl)-1,2-dihydropyridine-3-carboxamide] | 25 to 50 µM |
| CC(C)[C@H]1COCC(COc2ccc(-c3cc(C(N)=O)c(=O)[nH]c3C(F)(F)F)cc2)N1C (stereo partly drawn) [Example 211, 5-(4-(((5S)-5-isopropyl-4-methylmorpholin-3-yl)methoxy)phenyl)-2-oxo-6-(trifluoromethyl)-1,2-dihydropyridine-3-carboxamide] | 1 to 5 µM |
| CN1[C@@H](COc2ccc(-c3cc(C(N)=O)c(=O)[nH]c3C(F)(F)F)cc2)COC[C@@H]1C1CC1 [Example 210, 5-(4-(((3R,5S)-5-cyclopropyl-4-methylmorpholin-3-yl)methoxy)phenyl)-2-oxo-6-(trifluoromethyl)-1,2-dihydropyridine-3-carboxamide] | 5 to 10 µM |
| NC(=O)c1cc(-c2ccc(OCC3COCCO3)c(C3CC3)c2)c(C(F)(F)F)[nH]c1=O (stereo not drawn) [Example 243, 5-(4-((1,4-dioxan-2-yl)methoxy)-3-cyclopropylphenyl)-2-oxo-6-(trifluoromethyl)-1,2-dihydropyridine-3-carboxamide] | 1 to 5 µM |
| CN1CC(COc2ccc(-c3cc(C(N)=O)c(=O)[nH]c3C(F)(F)F)cc2)OC1=O (stereo not drawn) [Example 233, 5-(4-((3-methyl-2-oxooxazolidin-5-yl)methoxy)phenyl)-2-oxo-6-(trifluoromethyl)-1,2-dihydropyridine-3-carboxamide] | 25 to 50 µM |
| CC(C)OC[C@H]1COC[C@@H](COc2ccc(-c3cc(C(N)=O)c(=O)[nH]c3C(F)(F)F)cc2)O1 [Example 402, 5-(4-(((2S,6R)-6-(isopropoxymethyl)-1,4-dioxan-2-yl)methoxy)phenyl)-2-oxo-6-(trifluoromethyl)-1,2-dihydropyridine-3-carboxamide] | 5 to 10 µM |
| NC(=O)c1cc(-c2ccc(OCC3COCC(COC4CC(F)(F)C4)O3)cc2)c(C(F)(F)F)[nH]c1=O (single isomer, unassigned) [Example 367, 5-(4-((6-((3,3-difluorocyclobutoxy)methyl)-1,4-dioxan-2-yl)methoxy)phenyl)-2-oxo-6-(trifluoromethyl)-1,2-dihydropyridine-3-carboxamide] | 5 to 10 µM |
| Cc1cc(COc2ccc(-c3cc(C(N)=O)c(=O)[nH]c3C(F)(F)F)cc2)no1 [Example 224, 5-(4-((5-methylisoxazol-3-yl)methoxy)phenyl)-2-oxo-6-(trifluoromethyl)-1,2-dihydropyridine-3-carboxamide] | 25 to 50 µM |
| COC[C@H]1COC[C@H](COc2ccc(-c3cc(C(N)=O)c(=O)[nH]c3C(F)(F)F)cc2)O1 (single isomer, unassigned) [Example 401] | 5 to 10 µM |
| CC(F)(F)C1COCC(COc2ccc(-c3cc(C(N)=O)c(=O)[nH]c3C(F)(F)F)cc2)O1 (single isomer, unassigned) [Example 358, 5-(4-((6-(1,1-difluoroethyl)-1,4-dioxan-2-yl)methoxy)phenyl)-2-oxo-6-(trifluoromethyl)-1,2-dihydropyridine-3-carboxamide] | 5 to 10 µM |
| Cc1ncsc1COc1ccc(-c2cc(C(N)=O)c(=O)[nH]c2C(F)(F)F)cc1 [Example 272, 5-(4-((4-methylthiazol-5-yl)methoxy)phenyl)-2-oxo-6-(trifluoromethyl)-1,2-dihydropyridine-3-carboxamide] | 25 to 50 µM |
| NC(=O)c1cc(-c2ccc(OC[C@@H]3COC[C@H](C4CC4)O3)cc2)c(C(F)(F)F)[nH]c1=O [Example 404, 5-(4-(((2S,6S)-6-cyclopropyl-1,4-dioxan-2-yl)methoxy)phenyl)-2-oxo-6-(trifluoromethyl)-1,2-dihydropyridine-3-carboxamide] | 10 to 25 µM |
| CC(F)(F)C1COCC(COc2ccc(-c3cc(C(N)=O)c(=O)[nH]c3C(F)(F)F)cc2)O1 (single isomer, unassigned) [Example 359, 5-(4-((6-(1,1-difluoroethyl)-1,4-dioxan-2-yl)methoxy)phenyl)-2-oxo-6-(trifluoromethyl)-1,2-dihydropyridine-3-carboxamide] | 5 to 10 µM |
| C[C@]1(COCC(F)F)COC[C@@H](COc2ccc(-c3cc(C(N)=O)c(=O)[nH]c3C(F)(F)F)cc2)O1 [Example 431, 5-(4-(((2S,6R)-6-((2,2-difluoroethoxy)methyl)-6-methyl-1,4-dioxan-2-yl)methoxy)phenyl)-2-oxo-6-(trifluoromethyl)-1,2-dihydropyridine-3-carboxamide] | 5 to 10 µM |
| COC[C@@]1(C)COC[C@H](COc2ccc(-c3cc(C(N)=O)c(=O)[nH]c3C(F)(F)F)cc2)O1 [Example 408, 5-(4-(((2R,6S)-6-(methoxymethyl)-6-methyl-1,4-dioxan-2-yl)methoxy)phenyl)-2-oxo-6-(trifluoromethyl)-1,2-dihydropyridine-3-carboxamide] | 5 to 10 µM |

Same assay, conditions: read-out: RNP_Hubei B

| SMILES | IC50 |
| --- | --- |
| N#Cc1ccccc1COc1ccc(-c2cc(C(N)=O)c(=O)[nH]c2C(F)(F)F)cc1 [Example 89, 5-(4-((2-cyanobenzyl)oxy)phenyl)-2-oxo-6-(trifluoromethyl)-1,2-dihydropyridine-3-carboxamide] | 25 to 50 µM |
| NC(=O)c1cc(-c2ccc(OCC3CN(C4COC4)CCCO3)cc2)c(C(F)(F)F)[nH]c1=O (stereo not drawn) [Example 196, 5-(4-((4-(oxetan-3-yl)-1,4-oxazepan-2-yl)methoxy)phenyl)-2-oxo-6-(trifluoromethyl)-1,2-dihydropyridine-3-carboxamide] | 25 to 50 µM |
| NC(=O)c1cc(-c2ccc(OCc3cccc4nonc34)cc2)c(C(F)(F)F)[nH]c1=O [Example 74, 5-(4-(benzo[c][1,2,5]oxadiazol-4-ylmethoxy)phenyl)-2-oxo-6-(trifluoromethyl)-1,2-dihydropyridine-3-carboxamide] | 10 to 25 µM |
| COCC(Oc1ccc(-c2cc(C(N)=O)c(=O)[nH]c2C(F)(F)F)cc1)c1cccnc1 (stereo not drawn) [Example 186, 5-(4-(2-methoxy-1-(pyridin-3-yl)ethoxy)phenyl)-2-oxo-6-(trifluoromethyl)-1,2-dihydropyridine-3-carboxamide] | 25 to 50 µM |
| NC(=O)c1cc(-c2ccc(OCC3CCCCC3)cc2)c(C(F)(F)F)[nH]c1=O [Example 58, 5-(4-(cyclohexylmethoxy)phenyl)-2-oxo-6-(trifluoromethyl)-1,2-dihydropyridine-3-carboxamide] | 5 to 10 µM |
| CC(Oc1ccc(-c2cc(C(N)=O)c(=O)[nH]c2C(F)(F)F)cc1)c1cccnc1 (single isomer, unassigned) [Example 81, (R or S)-2-oxo-5-(4-(1-(pyridin-3-yl)ethoxy)phenyl)-6-(trifluoromethyl)-1,2-dihydropyridine-3-carboxamide] | 10 to 25 µM |
| NC(=O)c1cc(-c2cccc(O)c2)c(C(F)(F)F)[nH]c1=O [Example 9, 5-(3-hydroxyphenyl)-2-oxo-6-(trifluoromethyl)-1,2-dihydropyridine-3-carboxamide] | 25 to 50 µM |
| NC(=O)c1cc(-c2ccc(CN3CCOCC3)c(F)c2)c(C(F)(F)F)[nH]c1=O [Example 36, 5-(3-fluoro-4-(morpholinomethyl)phenyl)-2-oxo-6-(trifluoromethyl)-1,2-dihydropyridine-3-carboxamide] | 10 to 25 µM |
| NC(=O)c1cc(-c2ccc(COc3cccnc3)cc2)c(C(F)(F)F)[nH]c1=O [Example 177, 2-oxo-5-(4-((pyridin-3-yloxy)methyl)phenyl)-6-(trifluoromethyl)-1,2-dihydropyridine-3-carboxamide] | 25 to 50 µM |
| NC(=O)c1cc(-c2ccc(CC3(O)CCOCC3)cc2)c(C(F)(F)F)[nH]c1=O [Example 50, 5-(4-((4-hydroxytetrahydro-2H-pyran-4-yl)methyl)phenyl)-2-oxo-6-(trifluoromethyl)-1,2-dihydropyridine-3-carboxamide] | 25 to 50 µM |
| NC(=O)c1cc(-c2ccc(CN3CCOCC3c3cccnc3)cc2)c(C(F)(F)F)[nH]c1=O (stereo not drawn) [Example 32, 2-oxo-5-(4-((3-(pyridin-3-yl)morpholino)methyl)phenyl)-6-(trifluoromethyl)-1,2-dihydropyridine-3-carboxamide] | 25 to 50 µM |
| COC1CN(Cc2ccc(-c3cc(C(N)=O)c(=O)[nH]c3C(F)(F)F)cc2)C1 [Example 38, 5-(4-((3-methoxyazetidin-1-yl)methyl)phenyl)-2-oxo-6-(trifluoromethyl)-1,2-dihydropyridine-3-carboxamide] | 25 to 50 µM |

— patent US20240360082A1, “SUBSTITUTED PYRIDONE COMPOUNDS USEFUL TO TREAT ORTH[…]” (priority 2021, published 2024)
